Marks after values point to notes of the source that are not given here.
Columns and labels:
Assay type in all cases: in vivo
[1] = tested on: Erysiphe graminis f. sp. tritici; test: Test A: wheat powdery mildew, preventive spray on wheat seedlings; settings: Blumeria graminis, 192 h, read-out: Test A disease control rating; for pest or weed control at 200 ppm: 100 = 100% disease control, 0 = no control relative to controls
Procedure, shortened: (§1)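 Each test compound, pre-dissolved in acetone, was suspended in aqueous acetone containing surfactant and sprayed onto the plants to the point of run-off at 200 or 40 ppm.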

Uncinula necator = test: Test N: grape powdery mildew, preventive spray on grape seedlings; settings: 100 ppm (100 g/ha, 1000 L/ha), inoculated the following day, 100 = 100% disease control, 0 = no control relative to controls
Excerpt: (§2) General protocol for preparing test suspensions for Tests A-R: The test compounds were first dissolved in acetone in an amount equal to 3% of the final volume and then suspended at the desired concentration (in ppm) in acetone and purified water (50/50 mix) containing 250 ppm of the surfactant Trem® 014 (polyhydric alcohol esters). The resulting test suspensions were then used in tests A-R. In Tests A-M, compounds were sprayed as a 200 ppm test suspension (equivalent to a rate of 500 g/ha) or as a 40 ppm test suspension to the point of runoff on the test plants. In Tests N-R, compounds were sprayed as a 100 g/ha test suspension (equivalent to a rate of 100 ppm) on the test plants at an application volume of 1000 L/ha. The test suspension was sprayed on grape seedlings.

Plasmopara viticola [2] = test: Test R: grape downy mildew, preventive spray on grape seedlings; settings: 100 ppm (100 g/ha, 1000 L/ha), inoculated the following day, 100 = 100% disease control, 0 = no control relative to controls
Excerpt: as §2, with “seedlings. The following day the seedlings were inoculated with a spore suspension of Plasmopara viticola (the causal agent of grape downy mildew) and incubated in a saturated atmosphere at 20° C. for 24 h, then moved to a growth chamber at 20° C. for 7 days, after which time the test units were placed back into a saturated atmosphere at 20° C. for 24 h. Upon removal, disease ratings were made.” for “seedlings.”

Septoria nodorum = test: Test C: wheat glume blotch, preventive spray on wheat seedlings; settings: 200 ppm, 100 = 100% disease control, 0 = no control relative to controls; for pest or weed control at 200 ppm: Parastagonospora nodorum, 216 h, read-out: Test C disease control rating
Procedure, shortened: as §1

Alternaria solani = test: Test H: tomato early blight, preventive spray on seedlings
Procedure, shortened: as §1

[3] = tested on: Puccinia recondita f. sp. tritici; test: Test B: wheat leaf rust, preventive spray on wheat seedlings; settings: 200 ppm, 100 = 100% disease control, 0 = no control relative to controls; for pest or weed control at 200 ppm: Puccinia recondita, 192 h, read-out: Test B disease control rating
Procedure, shortened: as §1

Botrytis cinerea = test: Test F: tomato Botrytis, preventive spray on tomato seedlings
Procedure, shortened: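 Compounds dissolved in acetone (3% of final volume), suspended in 50/50 acetone/water with 250 ppm Trem® 014. Sprayed preventively to run-off on tomato seedlings at 200 ppm (500 g/ha) or 40 ppm.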

Magnaporthe grisea = settings: 100 ppm (100 g/ha, 1000 L/ha), rice seedlings, inoculated the following day; 100 = 100% disease control, 0 = no control relative to controls
Septoria tritici = test: Test D: wheat leaf blotch, preventive spray on wheat seedlings; settings: 200 ppm, 100 = 100% disease control, 0 = no control relative to controls; for pest or weed control at 200 ppm: Zymoseptoria tritici, 504 h, read-out: Test D disease control rating
Procedure, shortened: as §1

Rhizoctonia oryzae [4] = test: Test P: rice sheath blight, preventive spray on rice seedlings; settings: 100 ppm (100 g/ha, 1000 L/ha), inoculated the following day, 100 = 100% disease control, 0 = no control relative to controls
Excerpt: as §2, with “rice” for “grape”

[5] = tested on: Colletotrichum orbiculare; test: Test I: cucumber Colletotrichum anthracnose, preventive spray on cucumber seedlings; settings: 100 = 100% disease control, 0 = no control relative to controls; for pest or weed control at 200 ppm: Colletotrichum orbiculare, 144 h, read-out: Test I disease control rating
Procedure, shortened: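 Compound was dissolved in acetone (3% of final volume), then suspended in 50/50 acetone/water with 250 ppm Trem 014 surfactant. Cucumber seedlings were sprayed to run-off as a preventive treatment at 200 ppm (equivalent to 500 g/ha) or 40 ppm.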

Fusarium graminearum = test: whole plant or invertebrate; settings: for pest or weed control at 200 ppm: Fusarium graminearum, in Triticum aestivum, 192 h, read-out: Test E disease control rating
Venturia inaequalis = test: Test O: apple scab, preventive spray on apple seedlings; settings: 100 ppm (100 g/ha, 1000 L/ha), inoculated the following day, 100 = 100% disease control, 0 = no control relative to controls
Excerpt: as §2, with “apple” for “grape”

Pythium aphanidermatum = test: Test M: bluegrass pythium blight, preventive spray on bluegrass seedlings; settings: 200 ppm; 100 = 100% disease control, 0 = no control relative to controls
Excerpt: as §2, with “was sprayed to the point of run-off on bluegrass” for “was sprayed on grape”, “run-off on bluegrass seedlings.” for “sprayed on grape seedlings.”

Phytophthora infestans = settings: 200 ppm; 100 = 100% disease control, 0 = no control relative to controls
Sclerotinia sclerotiorum = test: Test G: cucumber white mold, preventive spray on cucumber seedlings; settings: 200 ppm; 100 = 100% disease control, 0 = no control relative to controls
Excerpt: as §2, with “was sprayed to the point of run-off on cucumber” for “was sprayed on grape”, “run-off on cucumber seedlings.” for “sprayed on grape seedlings.”

Rhizoctonia oryzae [6] = test: Test J: turf brown patch, preventive spray on creeping bent grass seedlings; settings: 200 ppm; 100 = 100% disease control, 0 = no control relative to controls
Excerpt: General protocol for preparing test suspensions for Tests A-R: The test compounds were first dissolved in acetone in an amount equal to 3% of the final volume and then suspended at the desired concentration (in ppm) in acetone and purified water (50/50 mix) containing 250 ppm of the surfactant Trem® 014 (polyhydric alcohol esters). The resulting test suspensions were then used in tests A-R. In Tests A-M, compounds were sprayed as a 200 ppm test suspension (equivalent to a rate of 500 g/ha) or as a 40 ppm test suspension to the point of runoff on the test plants. In Tests N-R, compounds were sprayed as a 100 g/ha test suspension (equivalent to a rate of 100 ppm) on the test plants at an application volume of 1000 L/ha. The test suspension was sprayed to the point of run-off on creeping bent grass seedlings.

Plasmopara viticola [7] = test: Test L: grape downy mildew, spray after inoculation of grape seedlings; settings: 200 ppm; 100 = 100% disease control, 0 = no control relative to controls
Excerpt: General protocol for preparing test suspensions for Tests A-R: The test compounds were first dissolved in acetone in an amount equal to 3% of the final volume and then suspended at the desired concentration (in ppm) in acetone and purified water (50/50 mix) containing 250 ppm of the surfactant Trem® 014 (polyhydric alcohol esters). The resulting test suspensions were then used in tests A-R. In Tests A-M, compounds were sprayed as a 200 ppm test suspension (equivalent to a rate of 500 g/ha) or as a 40 ppm test suspension to the point of runoff on the test plants. In Tests N-R, compounds were sprayed as a 100 g/ha test suspension (equivalent to a rate of 100 ppm) on the test plants at an application volume of 1000 L/ha. Grape seedlings were inoculated with a spore suspension of Plasmopara viticola (the causal agent of grape downy mildew) and incubated in a saturated atmosphere at 20° C. for 24 h. After a short drying period, the test suspension was sprayed to the point of run-off on the grape seedlings and then moved to a growth chamber at 20° C. for 6 days, after which time the test units were placed back into a saturated atmosphere at 20° C. for 24 h. Upon removal, disease ratings were made.

[8] = Botrytis cinerea, 120 h, 200 ppm, 100 = 100% disease control, 0 = no control relative to controls, read-out: Test F disease control rating
[9] = 200 ppm, 100 = 100% disease control, 0 = no control relative to controls

| Compound | pest or weed control at 200 ppm [1] | Test N disease control rating (Uncinula necator) | Test R disease control rating (Plasmopara viticola [2]) | pest or weed control at 200 ppm (Septoria nodorum) | pest or weed control at 200 ppm [3] | pest or weed control at 200 ppm (Botrytis cinerea; [8]) | Test Q disease control rating (Magnaporthe grisea) | pest or weed control at 200 ppm (Septoria tritici) | Test P disease control rating (Rhizoctonia oryzae [4]) | pest or weed control at 200 ppm [5] | pest or weed control at 200 ppm (Fusarium graminearum) | Test O disease control rating (Venturia inaequalis) | further results |
| --- | --- | --- | --- | --- | --- | --- | --- | --- | --- | --- | --- | --- | --- |
| COCC(C)Nc1nccc(-c2ncnc(Nc3cccc(F)c3)n2)n1 (centres unmarked) [Compound 2, N-(3-fluorophenyl)-4-[2-[(2-methoxy-1-methylethyl)amino]-4-pyrimidinyl]-1,3,5-triazin-2-amine] | 94% | 89% | 60% | 99% | 99% | 93% | 93% | 71% | 100% | 99% | 95% | 95% | pest or weed control at 200 ppm (Alternaria solani; Alternaria solani, 168 h, 200 ppm, 100 = 100% disease control, 0 = no control relative to controls, read-out: Test H disease control rating): 97% |
| COC[C@H](C)Nc1nccc(-c2ncnc(Nc3cccc(C#N)c3)n2)n1 [Compound 18] | – | 99% | 86% | – | – | – | 100% | – | 100% | – | – | 83% | Test C disease control rating (Septoria nodorum): 100%; Test H disease control rating (Alternaria solani; 40 ppm (marked *)): 89* %; Test B disease control rating [3]: 100%; Test F disease control rating (Botrytis cinerea; [9]): 95%; Test D disease control rating (Septoria tritici): 0%; Test I disease control rating ([5]; 200 ppm): 99%; Test E disease control rating (Fusarium graminearum; [9]): 85% |
| COC[C@H](C)Nc1nccc(-c2ncnc(Nc3cc(F)cc(F)c3)n2)n1 [Compound 22, N-(3,5-difluorophenyl)-4-[2-[[(1S)-2-methoxy-1-methylethyl]amino]-4-pyrimidinyl]-1,3,5-triazin-2-amine] | – | 99% | 83% | 100% | 99% | – | 100% | 36% | 100% | 100% | 99% | 99% | pest or weed control at 40 ppm ([1]; 40 ppm (marked *)): 69%; pest or weed control at 40 ppm (Alternaria solani; Alternaria solani, 168 h, 40 ppm (marked *), read-out: Test H disease control rating): 100%; pest or weed control at 40 ppm (Botrytis cinerea; Botrytis cinerea, 120 h, 40 ppm (marked *), read-out: Test F disease control rating): 99% |
| COCC(C)Nc1nccc(-c2ccnc(Nc3cccc(Cl)c3)c2)n1 (centres unmarked) [Compound 40, 4-[2-[(3-chlorophenyl)amino]-4-pyridinyl]-N-(2-methoxy-1-methylethyl)-2-pyrimidinamine] | 63% | – | – | 99% | 90% | 99% | – | 27% | – | 84% | 48% | – | Test M disease control rating (Pythium aphanidermatum): 0%; Test K disease control rating (Phytophthora infestans): 0%; Test G disease control rating (Sclerotinia sclerotiorum): 83%; Test J disease control rating (Rhizoctonia oryzae [6]): 0%; Test L disease control rating (Plasmopara viticola [7]): 0% |

Source: US8026359B2, “Fungicidal heterocyclic amines” (E.I. du Pont de Nemours and Company, priority 2007, dated 2011)
